# Laboratory results: patent publication US20260070921A1, “COMPOUND, ENDOPLASMIC RETICULUM STRESS INHIBITOR, PHARMACEUTICAL PRODUCT, OPHTHALMIC AGENT, EYE DROPS, COMPOSITION, AND METHOD FOR PRODUCING COMPOUND” (KYOTO UNIVERSITY, priority 2022, published 2026)
# How the values were obtained:
# iFECD = test: TGF-β2-induced cell damage in iFECD (phase-contrast microscopy); type: cell-based, human; details: pretreatment 24 h, TGF-β2 10 ng/ml; compound 1 1-100 μM, compound 6 10 nM-1 μM
# Method: The medium was removed from the culture dish, in which iFECD was being cultured, and 1×PBS(−) that had been pre-warmed to 37° C. was added to wash the cells. This procedure was performed twice. Again, 1×PBS(−) was added, and the cells were incubated at 37° C. (5% CO2) for 3 minutes. After the PBS(−) was removed, 0.05% Trypsin-EDTA (Nacalai Tesque, 32778-34) was added, and the cells were incubated at 37° C. ([…]) for 5 minutes. Thereafter, the cells were suspended in a medium and centrifuged at 1500 rpm for 3 minutes to recover the cells. The medium used was DMEM (Nacalai Tesque, 08456-36)+10% FBS (Biowest, S1820-500)+1% P/S (Nacalai Tesque, 26252-94).
# iFECD cells were seeded in a 12-well plate at a density of 0.5×10^5 cells per well and cultured at 37° C.
# The same method as described in the Materials and Methods section in Example 11-1 was used, except that compound 6 was used instead of compound 1, and the amount of iFECD seeded in a 12-well plate was changed from 0.5×10^5 cells per well to 0.9×10^5 cells per well.
# BiP = test: Quantitative RT-PCR of ER stress-related genes, BiP; type: cell-based; details: pretreatment 10 h, tunicamycin 1.0 μg/mL 24 h
# Method: (§1) First, total RNA was isolated using ISOGEN (tradename of Nippon Gene Co., Ltd.). cDNA was prepared using a Prime Script (trade name) first-strand cDNA synthesis kit (TaKaRa). qRT-PCR was performed with Fast SYBR Green Master Mix (Thermo Fisher) on a QuantStudio 3 real-time PCR system (Thermo Fisher). The copy number of each transcript is expressed relative to β-actin. The sequences of the primers (forward and reverse) are as follows: […]
# (§2) The ability to alleviate endoplasmic reticulum (ER) stress of compound 1 was examined in HEK293 cells. FIGS. 1 and 2 show the biological activity of compound 1 for decreasing cytotoxicity under ER stress. […] Error bars represent s.d. (n=3). Statistical analysis was performed according to one-way ANOVA and a Dunnett's test using R software. […] To further study the effect of compound 1 on ER stress, mRNA levels of typical UPR genes, such as ATF4, s-XPB1, CHOP, BiP, and ERDJ4, were examined. In addition to compound 1, compound 6 was also tested in the same experiment. […] The quantitative RT-PCR was performed according to the method described above. HEK293 cells were treated with compound 1 (100 μM) for 10 hours and then incubated with tunicamycin (1.0 μg/mL) for 24 hours. Isolated RNA samples were subjected to reverse transcription and quantitative RT-PCR. […]
# CHOP = test: Quantitative RT-PCR of ER stress-related genes, CHOP; type: cell-based; details: pretreatment 10 h, tunicamycin 1.0 μg/mL 24 h
# Method: as §1, §2
# [1] = Dynamic light scattering (DLS) of self-assemblies; type: physicochemical
# Source text: In the graphs on the left, the vertical axis “Z-ave. (nm)” represents the average particle size. In the graphs on the right, the vertical axis “Derived Count Rate (kcps)” represents the derived count rate. The horizontal axis represents the molar concentration (PM) of PBS (pH of 7.4) and DMEM (10% FBS). Error bars represent s.d. (n=3).
# “Z-ave.” represents the average size of particles. Error bars represent s.d. (n=3).
# “Z-average” represents the average size of particles. Error bars represent s.d. (n=3).
# luciferase = test: Luciferase-based refolding assay in live cells; type: cell-based; details: compound 1 100 μM, compound 6 25 μM, 20 h
# Method: HEK293 cells were seeded in 96-well plates (2×10^4 cells/well) and transfected with a luciferase expression plasmid (0.1 μg/well) using FuGENE HD (Promega). […] Refolding assay was performed as described in Walther, T. V.; Maddalo, D. Intracellular Refolding Assay. J Vis Exp 2012, No. 59. https://doi.org/10.3791/3540. Briefly speaking, luciferase was denatured in live cells by incubation at 45° C. for 30 minutes in the presence of 200 mM MOPS and 20 μg/mL cycloheximide. After the denaturation step, the cells were incubated at 37° C. for various times to allow the luciferase to refold. After cells were lysed with Reporter Lysis 5× Buffer (Promega), luciferase activity was measured.
# HEK293 cells = test: Fluorescence imaging of self-assemblies in living cells (DCVJ); type: cell-based; details: DCVJ 1.0 μM
# Method: HEK293 cells were incubated with compound 1, 4, 5, or 6 (25 or 100 μM) in the presence of 1.0 μM DCVJ in DMEM (10% FBS). Fluorescence and bright-field images were taken with a CV1000 confocal microscope equipped with a 40× objective lens (Yokogawa Electric Corporation).
# The ability of compound 1 and its derivatives, compounds 4 to 6, to form assemblies was also monitored in living cells. […] HEK293 cells were treated with compound 1, 4, 5, or 6 (25 μM or 100 μM) and 1.0 μM of DCVJ for 8 hours. Fluorescence and bright-field images were taken with a CV1000 confocal microscope. HEK293 cells were treated with compound 1, 4, 5, or 6 (25 or 100 μM) and DCVJ (1.0 μM) for 8 hours and observed with a confocal microscope. […] The self-assembling ability of the molecules of compound 6 may be due to its cellular activity at that concentration, even at 25 μM. […] To further support the importance of self-organization formation in cellular activity, dose-response curves for compounds 1 and 6 were determined. The biological activity of the compounds' molecular assembly is expected to be more cooperative than that of the monomer and to show a steeper dose-response curve (Reference Material 18 below). […] Compound 6 is referred to as “selfonamide” below. […] P. A High-Throughput Screen for Aggregation-Based Inhibition in a Large Compound Library. J Med Chem 2007, 50 (10), 2385-2390. https://doi.org/10.1021/jm061317y.
SMILES,Cell damage induced by recombinant human TGF-β2 (iFECD),Effect on BiP mRNA levels (BiP),Increase in CHOP mRNA levels (CHOP),"Average size of the assemblies (diameter) ([1]; DMEM (10% FBS), 100 μM) [nm]","Average size of the assemblies (diameter) ([1]; PBS (pH of 7.4), 100 μM)",Refolding of luciferase (luciferase),"Fluorescent particles within cells (HEK293 cells; 100 μM, after 8 hours)","Average size of the assemblies (diameter) ([1]; cell culture medium, 25 μM) [nm]","Assemblies within cells (HEK293 cells; 25 μM, 8 h)"
NS(=O)(=O)c1ccc(Nc2ccn3c(n2)nc(=O)c2sc4cc(F)ccc4c23)cc1 [compound 1],limited damage to corneal endothelial cells,limited effect,completely suppressed,~200,about 700 nm,slightly inhibited refolding,fluorescent particles were observed within the cells,,
COc1ccc2c(c1)sc1c(=O)nc3nc(Nc4ccc(S(N)(=O)=O)cc4)ccn3c12 [compound 6],limited damage to corneal endothelial cells,limited effect,completely suppressed,,,slightly inhibited refolding,,130,showed detectable assemblies within cells
